From US12590294B2, “Process for producing cardiomyocytes” (Oxford University Innovation Limited, priority 2020, dated 2026)

Experiments:
[1] = tested on: hiPSC derived atrial cardiomyocytes; experiment: Ca2+ transient imaging (Fluo4 optical mapping) with adrenergic agonists and antagonists; assay type: cell-based, human
Protocol: (§1) Optical mapping experiments were carried out after the cells started to contract. The responsiveness of the derived CMs in the experimental group to β and α adrenergic receptor agonists and antagonists was measured. Intracellular calcium transients were analysed using a 128×128 EMCCD camera (Photometrics, Tucson, USA). The derived CMs were pre-loaded with 1 μM Fluo4 (Molecular Probes by Life Technologies) dissolved in DMSO for 15 min at 37° C. in CMM. Calcium transients of the derived CMs were first recorded without the addition of the drugs as control. Recordings were then taken at 0 min, 5 min, 10 min and 15 min after 100 nM Isoprenaline (ISO) treatment. Using the same method, the responsiveness of the derived CMs in the experimental group to 10 μM Phenylephrine (PE) treatment was tested. […] Recordings were taken in the same way as described above. Similarly, the cells were pre-treated with 1 μM Prazosin dissolved in Fluo4 loading solution before a treatment of 10 μM PE. Metamorph was used to take the recordings, and 4000 or 8000 frames were taken for each recording, with a frame rate of 100 Hz (for 4000 frames) or 333.33 Hz (for 8000 frames). Regions of interest were selected using ImageJ. Raw traces were analysed and baseline corrections were conducted using Clampfit. Calcium transient amplitude change was calculated based on averaged trace. Part of the analysis was performed using custom MATLAB algorithms. To calculate beat-to-beat CaT50, the mean signal was segmented into individual beats. Representative regions were defined as two 16 by 16 pixel regions.
as §1, with “β and a adrenergic receptor” for “β and α adrenergic receptor”, “traces were analyzed and baseline” for “traces were analysed and baseline”, “was performed by the collaborator group from University of Birmingham using custom” for “was performed using custom”
We also tested whether hiPSC derived atrial cardiomyocytes responded to adrenoceptor stimulation by a or p adrenoceptor agonists. The presence of a functional al-adrenoceptor signaling pathway was first tested by exposure of hiPSC derived atrial cardiomyocytes to phenylephrine, which in adult atrial CMs increases the amplitude of Ca^2+ transients. Phenylephrine is an al-adrenoceptor agonist coupled to Gq and the mechanism of increase in Ca^2+ transient amplitude is associated with an increase cellular IP3 levels. Atrial cardiomyocytes from Days 25-30 post initiation of differentiating human iPSC derived atrial cardiomyocytes were used to assess the effect of phenylephrine on Ca^2+ transient amplitude. […]

[2] = tested on: monolayer HiPSC-AM sheets; experiment: Optical mapping of monolayer HiPSC-AM sheets, adrenergic stress induced CaT alternans; assay type: cell-based, human; conditions: 100 nM ISO; regular pacing at 0.5-1 Hz
Protocol: Optical mapping experiments were carried out after the cells started to contract. The responsiveness of the derived CMs in the experimental group to β and a adrenergic receptor agonists and antagonists was measured. Intracellular calcium transients were analysed using a 128×128 EMCCD camera (Photometrics, Tucson, USA). The derived CMs were pre-loaded with 1 μM Fluo4 (Molecular Probes by Life Technologies) dissolved in DMSO for 15 min at 37° C. in CMM. Calcium transients of the derived CMs were first recorded without the addition of the drugs as control. Recordings were then taken at 0 min, 5 min, 10 min and 15 min after 100 nM Isoprenaline (ISO) treatment. Using the same method, the responsiveness of the derived CMs in the experimental group to 10 μM Phenylephrine (PE) treatment was tested. In adrenergic receptor antagonist tests, the cells were pre-treated with 600 nM CGP20712A (CGP) (Sigma) dissolved in Fluo4 loading solution prior to 100 nM ISO treatment. Recordings were taken in the same way as described above. Similarly, the cells were pre-treated with 1 μM Prazosin dissolved in Fluo4 loading solution before a treatment of 10 μM PE. […] Raw traces were analyzed and baseline corrections were conducted using Clampfit. Calcium transient amplitude change was calculated based on averaged trace. […]

With `Cn1cc(C(F)(F)F)nc1-c1ccc(OCC(O)CNCCOc2ccc(O)c(C(N)=O)c2)cc1` (centres unmarked) [CGP20712A] the “effects of adrenergic stimulation after β-adrenergic antagonist pre-treatment” value ([1]; 600 nM GCP pre-treated, recorded 10 min after 10 uM PE (so in the source)) was “abolished” and the “effect on the amplitude of Ca2+ transients, antagonist by itself” value ([1]; CGP20712A 300 nM alone) was “no effect”.
In the case of `CNC[C@H](O)c1cccc(O)c1` [phenylephrine], the “effect on Ca2+ transient decay time” value ([1]; 10 μM phenylephrine) is reported as “no effect”, the “effect on Ca2+ transient rise time” value ([1]; 10 μM phenylephrine) is reported as “no effect” and the “change in the amplitude of Ca2+ transients in the presence of prazosin” value ([1]; 10 μM phenylephrine in the presence of prazosin, n=5 batch of cells) is reported as “did not cause any significant change”. For the same compound, the “increase in Ca2+ transient amplitude” value ([1]; 10 μM phenylephrine, fluo-4 fluorescence, Days 25-30, n=5 batch of cells) was 28±10%.
`COc1cc2nc(N3CCN(C(=O)c4ccco4)CC3)nc(N)c2cc1OC` [prazosin] was tested, and the “effect on the amplitude of Ca2+ transients, antagonist by itself” value ([1]; 1 μM prazosin alone) was “no effect” and the “effects of adrenergic stimulation by 10 uM PE after antagonist pre-treatment” value ([1]; 1 uM prazosin pre-treated, recorded 10 min after 10 uM PE) was “abolished”.
With `CC(C)NCC(O)c1ccc(O)c(O)c1` (centres unmarked) [isoproterenol] the CaT alternans [2] was “occurred”, the “increase in the amplitude of Ca2+ transients” value ([1]; isoproterenol 100 nM, n=5 batch of cells) was 26±5% and the “effect on the amplitude of Ca2+ transients when CGP20712A was present” value ([1]; isoproterenol with CGP20712A (300 nM) present, n=5 batch of cells) was “without effect”.
